Test results: patent US6420424B1, “CCR-3 receptor antagonists” (SmithKline Beecham Corporation, priority 1998, dated 2002)

melting point: 120 to 122 °C
SMILES: CCOC(=O)[C@H](Cc1ccc(N)cc1)NC(=O)c1ccccc1 [Example 6, (S)-Ethyl-2-benzoylamino-3-(4-aminophenyl)propionate]
